Test results published in publication PMC10140010 (Investigational New Drugs, 2023).
Several values for one entry are separate records, joined by “and”; a condition that tells them apart may be missing. Equal values may be shown once.

Key:
JAK2 = JAK2 (Homo sapiens, UniProt O60674); assay: Z'-LYTE kinase selectivity; format: biochemical
LCK = LCK (Homo sapiens, UniProt P06239); assay: Z'-LYTE kinase selectivity; format: biochemical
[1] = test system: LU-01-0015 (HIP-ALK) patient derived lung-tumor xenografts; assay: LU-01-0015 patient-derived xenograft model (tumor volume, body weight); format: in vivo, BALB/c nude mice; conditions: for Tumor volume Mean: group mean; for Tumor volume: individual mouse, in mm³
Protocol: Female BALB/c nude mice (4–6 weeks old) were provided by Shanghai Sipple-Bikai Laboratory Animal Co., Ltd. and Beijing Vital River Laboratory Animal Technology Co., Ltd. The mice were housed in a specific pathogen-free environment under a 12 h light/dark cycle, and had free access to sterile animal feed and water.
PDX and CDX models were used for in vivo studies. Patient-derived tumors tissues were divided into about 30 mm^3 and transplanted into the right dorsal subcutis. Treatment began when the tumor size reached to 200 mm^3. The mice were randomly assignied into the corresponding dosing groups (9 mice in each group). Drugs were deliverd via daily oral for 4 weeks. Tumor size was measured periodically using a digital caliper (Cal Pro, Sylvac, Switzerland), and tumor volume was calculated as 0.5 × length × width^2. For more detailed information, please refer to Supplementary materials. All procedures and protocols of xenograft models were approved by the Institutional Animal Care and Use Committee of WuXi AppTec.
Patient-derived tumor tissue was segmented into small pieces of approximately 20–30 mm^3 and transplanted subcutaneously into the right back of mice. When the tumor volume reached 150-200 mm^3, the mice were randomly divided into corresponding groups (9 mice in each group, female). Administered by gavage once daily for 4 weeks.

MINK = MINK (Homo sapiens, UniProt Q8N4C8); assay: Z'-LYTE kinase selectivity; format: biochemical
TAOK2 = TAOK2 (Homo sapiens, UniProt Q9UL54); assay: Z'-LYTE kinase selectivity; format: biochemical
MAPKAPK2 = MAPKAPK2 (Homo sapiens, UniProt P49137); assay: Z'-LYTE kinase selectivity; format: biochemical
[2] = test system: Ba/F3 (EML4-ALK^C1156Y) cells; assay: Cell proliferation (CellTiter-Glo); format: cell-based; conditions: read-out: IC50 BaF3-EML4-ALK C1156Y
Protocol: (§1) Cell proliferation assay was performed using methods reported in the previous article. Cell proliferation was measured using the CellTiter-Glo® (CTG) Luminescent Cell Viability Assay (Promega, WI, USA). Cells were seeded in 96-well plates at 15,000 cells per well in detection medium containing 0.5% fetal bovine serum and placed in an incubator at 37℃ and 5% CO2 overnight. On the following day, iruplinalkib was serially diluted with DMSO, further diluted in assay medium, and added to the designated wells for serial dilution of iruplinalkib to the target gradient concentration.
(§2) Transfection was performed when cell confluent reached 70–90% in 12-well plates. Opti-MEM medium was used to dilute Lipofectamine 3000 reagent (ThermoFisher, MA, USA) and siRNA separately and mixed well. The mixture was added to the cells after incubation at room temperature for 15 min, then at 37℃ for 2–4 days.

[3] = test system: Ba/F3 (EML4-ALK^WT) cells; assay: Cell proliferation (CellTiter-Glo); format: cell-based; conditions: read-out: IC50 BaF3-EML4-ALK WT
Protocol: as §1, §2

KDR = KDR (Homo sapiens, UniProt P35968); assay: Z'-LYTE kinase selectivity; format: biochemical
CaMK2 alpha = CaMK2 alpha (Homo sapiens, UniProt Q9UQM7); assay: Z'-LYTE kinase selectivity; format: biochemical
INSR = INSR (Homo sapiens, UniProt P06213); assay: Z'-LYTE kinase selectivity; format: biochemical
[4] = test system: NIH-3T3 (CD74-ROS1) cells; assay: Cell proliferation (CellTiter-Glo); format: cell-based
Protocol: as §1

[5] = test system: HCC-78 (SLC34A2-ROS1) cells; assay: Cell proliferation (CellTiter-Glo); format: cell-based
Protocol: as §1

[6] = test system: NCI-H1975 (EGFR^L858R/T790M) cells; assay: Cell proliferation (CellTiter-Glo); format: cell-based
Protocol: as §1

[7] = test system: Karpas299 (NPM-ALK) cells; assay: Cell proliferation (CellTiter-Glo); format: cell-based
Protocol: as §1

[8] = test system: Ba/F3 (SLC34A2-ROS1) cells; assay: Cell proliferation (CellTiter-Glo); format: cell-based; conditions: read-out: IC50 BaF3 SLC34A2-ROS1
Protocol: as §1

Ba/F3 cells = assay: Cell proliferation (CellTiter-Glo); format: cell-based; conditions: read-out: IC50 BaF3
Protocol: as §1

MST4 = MST4 (Homo sapiens, UniProt Q9P289); assay: Z'-LYTE kinase selectivity; format: biochemical
PKA = PKA (Homo sapiens, UniProt P17612); assay: Z'-LYTE kinase selectivity; format: biochemical
CHK1 = CHK1 (Homo sapiens, UniProt O14757); assay: Z'-LYTE kinase selectivity; format: biochemical
[9] = 5 mg/kg PO QD×4 W, day 0 after administration
[10] = 5 mg/kg PO QD×4 W, day 7 after administration
[11] = 5 mg/kg PO QD×4 W, day 10 after administration
[12] = 5 mg/kg PO QD×4 W, day 14 after administration
[13] = 5 mg/kg PO QD×4 W, day 17 after administration
[14] = 5 mg/kg PO QD×4 W, day 21 after administration
[15] = 5 mg/kg PO QD×4 W, day 24 after administration
[16] = 5 mg/kg PO QD×4 W, day 27 after administration
[17] = 10 mg/kg PO QD×4 W, day 0 after administration
[18] = 10 mg/kg PO QD×4 W, day 3 after administration
[19] = 10 mg/kg PO QD×4 W, day 7 after administration
[20] = 10 mg/kg PO QD×4 W, day 10 after administration
[21] = 10 mg/kg PO QD×4 W, day 14 after administration
[22] = 10 mg/kg PO QD×4 W, day 17 after administration
[23] = 10 mg/kg PO QD×4 W, day 21 after administration
[24] = 10 mg/kg PO QD×4 W, day 24 after administration
[25] = 10 mg/kg PO QD×4 W, day 27 after administration

Sequence of CHK1 (O14757 whole entry): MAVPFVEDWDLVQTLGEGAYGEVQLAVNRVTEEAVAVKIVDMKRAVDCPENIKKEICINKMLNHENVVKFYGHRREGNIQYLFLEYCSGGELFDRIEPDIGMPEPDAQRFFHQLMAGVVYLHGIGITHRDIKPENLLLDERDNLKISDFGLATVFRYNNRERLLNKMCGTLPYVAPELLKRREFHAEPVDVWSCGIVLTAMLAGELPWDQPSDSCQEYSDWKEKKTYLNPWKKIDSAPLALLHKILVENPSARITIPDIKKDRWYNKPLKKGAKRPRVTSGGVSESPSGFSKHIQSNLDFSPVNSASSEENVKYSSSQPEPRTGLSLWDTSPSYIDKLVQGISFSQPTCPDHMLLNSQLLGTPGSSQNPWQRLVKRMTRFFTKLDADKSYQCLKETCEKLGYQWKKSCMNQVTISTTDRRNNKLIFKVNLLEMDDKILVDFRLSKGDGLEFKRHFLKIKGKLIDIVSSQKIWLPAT
Sequence of MINK (Q8N4C8 whole entry): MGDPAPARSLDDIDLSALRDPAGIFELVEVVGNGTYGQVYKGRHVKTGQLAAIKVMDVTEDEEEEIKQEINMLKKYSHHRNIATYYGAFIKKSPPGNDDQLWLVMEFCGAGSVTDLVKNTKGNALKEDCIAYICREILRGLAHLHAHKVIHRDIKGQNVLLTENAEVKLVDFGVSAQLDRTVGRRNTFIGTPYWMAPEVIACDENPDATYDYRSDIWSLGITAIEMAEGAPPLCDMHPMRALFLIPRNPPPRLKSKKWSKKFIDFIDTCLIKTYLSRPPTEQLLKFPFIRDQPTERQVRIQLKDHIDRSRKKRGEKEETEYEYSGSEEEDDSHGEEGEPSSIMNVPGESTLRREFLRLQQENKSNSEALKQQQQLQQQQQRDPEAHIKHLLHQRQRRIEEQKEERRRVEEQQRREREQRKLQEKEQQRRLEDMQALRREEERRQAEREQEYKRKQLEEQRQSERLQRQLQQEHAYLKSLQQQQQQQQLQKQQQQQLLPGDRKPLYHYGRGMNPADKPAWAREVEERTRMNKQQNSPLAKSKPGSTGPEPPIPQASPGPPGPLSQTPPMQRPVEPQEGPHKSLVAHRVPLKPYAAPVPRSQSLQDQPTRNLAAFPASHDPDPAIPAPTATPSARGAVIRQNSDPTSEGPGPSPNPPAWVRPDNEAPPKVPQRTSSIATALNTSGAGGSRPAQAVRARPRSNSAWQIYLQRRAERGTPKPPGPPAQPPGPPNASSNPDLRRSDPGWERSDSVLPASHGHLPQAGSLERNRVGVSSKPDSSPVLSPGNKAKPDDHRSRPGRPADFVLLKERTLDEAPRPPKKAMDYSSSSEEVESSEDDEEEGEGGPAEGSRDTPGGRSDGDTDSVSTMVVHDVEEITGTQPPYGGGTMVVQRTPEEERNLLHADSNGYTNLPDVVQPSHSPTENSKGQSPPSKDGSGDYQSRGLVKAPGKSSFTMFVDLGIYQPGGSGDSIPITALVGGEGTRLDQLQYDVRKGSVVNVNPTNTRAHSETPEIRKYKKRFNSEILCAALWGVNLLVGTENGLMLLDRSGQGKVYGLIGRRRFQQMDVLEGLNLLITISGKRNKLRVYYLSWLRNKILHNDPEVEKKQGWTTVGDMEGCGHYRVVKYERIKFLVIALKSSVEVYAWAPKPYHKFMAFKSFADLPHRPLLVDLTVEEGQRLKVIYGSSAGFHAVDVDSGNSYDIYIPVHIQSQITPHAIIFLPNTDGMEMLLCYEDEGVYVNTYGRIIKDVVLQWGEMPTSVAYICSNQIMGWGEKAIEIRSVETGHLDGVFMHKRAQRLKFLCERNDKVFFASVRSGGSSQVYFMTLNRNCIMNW
Sequence of KDR (P35968 20-1356): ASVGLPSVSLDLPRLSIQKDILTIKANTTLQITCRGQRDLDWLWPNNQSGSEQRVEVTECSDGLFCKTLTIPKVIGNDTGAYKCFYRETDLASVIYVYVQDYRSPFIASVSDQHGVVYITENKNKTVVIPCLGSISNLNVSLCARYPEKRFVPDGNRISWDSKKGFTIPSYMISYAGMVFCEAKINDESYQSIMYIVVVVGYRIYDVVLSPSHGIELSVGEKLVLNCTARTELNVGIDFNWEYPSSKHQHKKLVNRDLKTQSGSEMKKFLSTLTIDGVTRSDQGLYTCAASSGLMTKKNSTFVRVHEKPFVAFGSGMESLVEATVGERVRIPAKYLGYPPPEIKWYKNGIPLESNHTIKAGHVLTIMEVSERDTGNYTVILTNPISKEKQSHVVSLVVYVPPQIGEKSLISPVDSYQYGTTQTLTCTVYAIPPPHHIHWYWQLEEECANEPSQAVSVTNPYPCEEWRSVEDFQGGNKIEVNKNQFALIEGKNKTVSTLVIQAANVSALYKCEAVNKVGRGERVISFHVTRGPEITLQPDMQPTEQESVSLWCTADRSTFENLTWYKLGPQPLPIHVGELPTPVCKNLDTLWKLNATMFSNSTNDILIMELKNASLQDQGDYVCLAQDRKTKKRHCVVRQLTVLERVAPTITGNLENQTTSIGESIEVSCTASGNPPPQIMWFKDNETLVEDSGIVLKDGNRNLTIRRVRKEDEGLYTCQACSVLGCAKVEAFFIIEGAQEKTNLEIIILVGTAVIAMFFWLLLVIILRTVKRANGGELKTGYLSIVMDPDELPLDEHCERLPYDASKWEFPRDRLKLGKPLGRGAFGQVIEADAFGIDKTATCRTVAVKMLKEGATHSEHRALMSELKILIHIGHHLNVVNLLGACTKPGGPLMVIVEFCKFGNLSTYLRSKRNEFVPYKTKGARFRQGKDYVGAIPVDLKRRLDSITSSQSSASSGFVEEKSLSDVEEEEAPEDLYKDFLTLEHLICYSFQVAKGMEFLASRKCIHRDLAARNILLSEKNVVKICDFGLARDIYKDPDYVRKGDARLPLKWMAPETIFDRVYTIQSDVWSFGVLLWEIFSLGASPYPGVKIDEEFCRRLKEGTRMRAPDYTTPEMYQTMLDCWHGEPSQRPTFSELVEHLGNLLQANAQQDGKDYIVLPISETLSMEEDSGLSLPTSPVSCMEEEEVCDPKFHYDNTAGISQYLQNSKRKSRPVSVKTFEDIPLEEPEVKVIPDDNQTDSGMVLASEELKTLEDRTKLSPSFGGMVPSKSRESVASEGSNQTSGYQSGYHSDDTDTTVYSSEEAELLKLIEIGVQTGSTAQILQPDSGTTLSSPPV
Sequence of TAOK2 (Q9UL54 whole entry): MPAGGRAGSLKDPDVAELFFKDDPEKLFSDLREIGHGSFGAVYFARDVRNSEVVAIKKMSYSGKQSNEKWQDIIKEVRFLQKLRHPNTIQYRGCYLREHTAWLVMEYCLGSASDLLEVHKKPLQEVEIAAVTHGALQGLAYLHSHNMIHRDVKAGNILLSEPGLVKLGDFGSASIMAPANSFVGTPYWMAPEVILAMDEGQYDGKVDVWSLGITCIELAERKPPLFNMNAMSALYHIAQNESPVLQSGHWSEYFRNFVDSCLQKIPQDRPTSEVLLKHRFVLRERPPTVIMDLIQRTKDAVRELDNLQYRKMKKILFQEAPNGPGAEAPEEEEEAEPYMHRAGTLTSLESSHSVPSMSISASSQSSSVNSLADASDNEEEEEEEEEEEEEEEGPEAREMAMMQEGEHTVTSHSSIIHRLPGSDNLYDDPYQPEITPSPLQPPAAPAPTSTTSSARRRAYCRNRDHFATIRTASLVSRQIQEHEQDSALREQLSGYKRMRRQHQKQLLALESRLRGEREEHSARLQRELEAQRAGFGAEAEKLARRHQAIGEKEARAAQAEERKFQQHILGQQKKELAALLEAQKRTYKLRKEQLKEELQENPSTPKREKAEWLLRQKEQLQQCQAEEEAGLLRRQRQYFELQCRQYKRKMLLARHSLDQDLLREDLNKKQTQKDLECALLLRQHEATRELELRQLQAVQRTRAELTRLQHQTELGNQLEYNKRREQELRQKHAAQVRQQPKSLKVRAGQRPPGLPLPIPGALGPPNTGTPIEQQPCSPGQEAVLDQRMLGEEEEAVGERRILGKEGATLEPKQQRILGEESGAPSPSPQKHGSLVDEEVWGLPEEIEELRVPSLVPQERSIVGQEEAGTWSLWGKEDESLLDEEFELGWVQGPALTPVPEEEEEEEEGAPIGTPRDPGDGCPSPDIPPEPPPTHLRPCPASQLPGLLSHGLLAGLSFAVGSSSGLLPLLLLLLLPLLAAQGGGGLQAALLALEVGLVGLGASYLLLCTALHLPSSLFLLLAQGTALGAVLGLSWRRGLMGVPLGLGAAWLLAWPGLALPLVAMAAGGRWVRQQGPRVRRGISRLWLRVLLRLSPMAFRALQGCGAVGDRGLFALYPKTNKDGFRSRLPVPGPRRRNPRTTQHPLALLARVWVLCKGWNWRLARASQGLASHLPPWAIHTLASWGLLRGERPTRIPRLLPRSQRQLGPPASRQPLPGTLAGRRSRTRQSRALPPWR
Sequence of CaMK2 alpha (Q9UQM7 whole entry): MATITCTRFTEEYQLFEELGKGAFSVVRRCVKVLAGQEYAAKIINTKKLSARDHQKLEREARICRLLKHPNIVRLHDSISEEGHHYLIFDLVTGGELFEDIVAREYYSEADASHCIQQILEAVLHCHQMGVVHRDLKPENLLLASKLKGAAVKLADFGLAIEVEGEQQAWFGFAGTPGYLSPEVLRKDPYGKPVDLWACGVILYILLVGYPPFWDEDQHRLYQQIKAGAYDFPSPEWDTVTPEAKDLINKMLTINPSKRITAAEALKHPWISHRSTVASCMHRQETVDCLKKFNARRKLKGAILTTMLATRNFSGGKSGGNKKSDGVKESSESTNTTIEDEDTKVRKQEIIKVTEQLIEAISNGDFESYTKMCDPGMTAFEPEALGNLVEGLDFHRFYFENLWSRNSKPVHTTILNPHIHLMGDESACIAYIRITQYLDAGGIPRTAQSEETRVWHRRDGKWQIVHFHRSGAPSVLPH

COc1cc(N2CCC(N3CCN(C)CC3)CC2)ccc1Nc1ncc(Cl)c(Nc2ccccc2P(C)(C)=O)n1 [Brigatinib, reference compound]
IC50 (JAK2): 680 ± 47 nM | IC50 (LCK): 444 ± 84 nM | Tumor volume Mean [1, 9]: 153 mm³ | Tumor volume [1, 9]: 189 and 117 and 124 | Tumor volume ([1]; 5 mg/kg PO QD×4 W, day 3 after administration): 172 and 123 and 114 | Tumor volume Mean [1, 10]: 146 mm³ | Tumor volume [1, 10]: 149 and 98 | Tumor volume Mean [1, 11]: 122 mm³ | Tumor volume [1, 11]: 128 and 67 | Tumor volume Mean [1, 12]: 123 mm³ | Tumor volume [1, 12]: 154 and 64 | Tumor volume Mean [1, 13]: 146 mm³ | Tumor volume [1, 13]: 177 and 96 | Tumor volume Mean [1, 14]: 162 mm³ | Tumor volume [1, 14]: 138 and 255 | Tumor volume Mean [1, 15]: 148 mm³ | Tumor volume [1, 15]: 122 and 117 | Tumor volume Mean [1, 16]: 157 mm³ | Tumor volume [1, 16]: 113 and 101 and 56 | Tumor volume Mean [1, 17]: 149 mm³ | Tumor volume [1, 17]: 229 and 201 and 134 and 173 and 152 and 164 and 80 and 99 and 111 | Tumor volume Mean [1, 18]: 141 mm³ | Tumor volume [1, 18]: 206 and 208 and 136 and 143 and 125 and 137 and 82 and 123 and 106 | Tumor volume Mean [1, 19]: 123 mm³ | Tumor volume [1, 19]: 195 and 180 and 121 and 110 and 74 and 78 and 152 and 89 | Tumor volume Mean [1, 20]: 114 mm³ | Tumor volume [1, 20]: 236 and 171 and 101 and 97 and 63 and 85 and 89 and 106 and 80 | Tumor volume Mean [1, 21]: 108 mm³ | Tumor volume [1, 21]: 204 and 172 and 98 and 118 and 60 and 84 and 74 and 89 and 71 | Tumor volume Mean [1, 22]: 133 mm³ | Tumor volume [1, 22]: 239 and 176 and 118 and 196 and 66 and 106 and 97 and 89 | Tumor volume Mean [1, 23]: 133 mm³ | Tumor volume [1, 23]: 247 and 182 and 156 and 187 and 61 and 96 and 111 and 68 and 85 | Tumor volume Mean [1, 24]: 136 mm³ | Tumor volume [1, 24]: 262 and 186 and 98 and 210 and 62 and 101 and 137 and 102 and 70 | Tumor volume Mean [1, 25]: 152 mm³ | Tumor volume [1, 25]: 332 and 197 and 131 and 249 and 47 and 95 and 163 and 85 and 70 | tumor growth inhibition ([1]; LU-01-0015 and NCI-H3122 xenograft models, all P < 0.05): able to inhibit tumor growth | effect on body weight ([1]; nude mouse xenograft models (LU-01-0015, NCI-H3122), all P ≥ 0.05): no effect | IC50 (MINK): 4040 ± 2160 nM | IC50 (TAOK2): 964 ± 48 nM | IC50 (MAPKAPK2): > 10000 nM | IC50 [2]: 14 nM | IC50 [3]: 6 nM | IC50 (KDR): 178 ± 52 nM | IC50 (CaMK2 alpha): 319 ± 13 nM | IC50 (INSR): 626 ± 304 nM | IC50 [4]: 469 nM | IC50 [5]: 425 nM | IC50 [6]: 479 ± 110 nM | IC50 [7]: 9 nM | IC50 [8]: 6.49 nM | IC50 (Ba/F3 cells): 2120 ± 23 nM | IC50 (MST4): 1080 ± 502 nM | IC50 (PKA): > 10000 nM | IC50 (CHK1): 70 ± 32 nM
